We go through two compounds from article PMC12195941, “Novel Micro-LC-MS/MS Method for the Quantification of Tenofovir and Its Active Metabolite Tenofovir-Diphosphate in Biological Matrices for Therapeutic Drug Monitoring” (Pharmaceuticals, 2025).

The term half-life denotes how long it takes for the measured level to halve.

Data set [1] in a line: Validation stability of TFV and TFVDP in spiked whole blood and sample extracts. Particulars: for Stability, Sample extracts 24 h 10 °C: autosampler; for Stability, Sample extracts 24 h 10 °C / Stability, Blood 4 h room temp. / Stability, Blood freeze-thaw 5 cycles / Stability, Blood at −30 °C for 1 month: the values are: stability, % of nominal; for Stability, Blood at −30 °C for 1 month: blood diluted 1:5 with 1.25% ammonia. In kind it is in vitro ADME. As for the experimental part:
Samples were stable for 1 month at −30 °C, for 5 freeze–thaw cycles and for 24 h at 10 °C in the autosampler. Benchtop stability was evaluated for 4 h at room temperature with blood samples spiked with TFVDP only and the results were within 96.9 and 104.714 from nominal in stabilized conditions, while in the absence of the phosphatase inhibitor the degradation was, on average, 85% at all tested concentrations. Calibration curves were linear for both TFV and TFVDP, with correlation coefficients > 0.995.
Spiked calibration standards (CC) and quality control (QC) samples were prepared in whole blood diluted 1:5 with ultrapure water containing 1.25% ammonia (v/v). TFV concentrations were as follows: 0–0.25–1–4–16–64–128–256 ng/mL (CC) and 0.75–15–210 ng/mL (QC Low, Medium and High, respectively). TFVDP concentrations were as follows: 0–0.5–2–8–32–128–256–512 ng/mL (CC) and 1.5–30–420 ng/mL (QC Low, Medium and High, respectively).
Blank blood was frozen at −80 °C before use; therefore, cells were lysed. CCs and QCs were built in blood diluted 1 + 4 with water and alkalinized with 1.25% ammonia, for phosphatases inhibition. Patient samples received identical treatment before undergoing the sample preparation protocol, ensuring uniform composition across samples.
The method for quantifying TFV and TFVDP in whole blood was validated in terms of selectivity, linearity, accuracy, precision, limits of quantification, sample stability under storage and processing conditions, extraction recovery, and matrix effects, in accordance with the April 2022 ICH guidelines, subsequently adopted by the FDA in November 2022 [38]. The analytical ranges to be validated were chosen based upon the expected concentrations as found in literature and from in-house preliminary experiments. Matrix effects were evaluated comparing the signal of theoretical QC concentrations prepared in mobile phase (taken as 100% recovery) against those obtained after spiking blank extracts at identical concentrations. Matrix factors were calculated for each analyte, and isotope-labelled internal standards were employed to correct for residual matrix influence.

On the set-up of data set [2]: method as in PMID 21118913, PMID 30137238, PMID 25065857. Particulars: in red blood cells (RBC); cited from earlier work.
Data set [3] can be described thus: TFVDP stability in blood spiked without stabilizers (degradation by phosphatases). It is filed as in vitro ADME. The conditions noted are these: degrades to TFVMP and TFV. As for the experimental part: A series of experiments was conducted to evaluate this degradation by phosphatases and counteract it. TFVDP only (1 or 2 µg/mL) was added to blood or plasma; 50 µL aliquots were extracted in the presence of isotope-labeled internal standards, and the formation of TFV and […] was monitored, together with TFVDP degradation. […] The extent of the phenomenon is illustrated in Figure 3. The first attempt to reduce phosphatases activity was performing all the sample preparation procedures on ice bath. No significant improvement was observed.
Figure 3 Extracted ion chromatograms overlay (A) recorded on the MRM transitions of TFV (B), TFVMP (C) and TFVDP (D) and their corresponding deuterated internal standards in an extracted sample (as described in paragraph 3.5). Blood sample diluted 1:5 with water and spiked with 520 ng/mL TFVDP in a non-stabilized sample (left) and with phosphatases inhibition (right). High peaks of TFMP were observed only after a short time (30 min) at room temperature without enzyme inhibition.

The nature of data set [4]: TFV and TFVDP levels in clinical samples (whole blood, plasma) of treated patients by micro-LC-MS/MS. The conditions noted are these: patient 10, tenofovir alafenamide 25 mg, 12 to 24 h after dosing. It is filed as in vivo. As for the experimental part: Blood samples were collected, with informed consent, from 11 HIV-infected patients treated with tenofovir, 12 to 24 h after dosing. Two patients (numbers 10 and 11) received tenofovir alafenamide 25 mg, the others being administered with tenofovir disoproxil fumarate 245 mg.
Blood samples were collected from HIV-positive patients at the National Institute for Infectious Diseases “Prof Dr. Matei Bals”, with the approval of the Bioethical Committee (protocol code C10242/02.10.2024, approved 18 October 2024). All patients were under treatment with anti-retroviral drugs, and sampling was performed from 12 to 24 h after dosing.
Blood samples (4 mL each) were collected using potassium EDTA (sampling tubes EDTAK3, 4.0 mL, Englober SRL, Brasov, Romania) or sodium citrate (9NC sampling tubes, BD, Plymouth, UK) as anticoagulants. Aliquots of 0.5 mL were used for plasma separation, by centrifugation (5 min, 3900 rpm), within 60 min from sampling. […] All samples were frozen at −30 °C until analyzed. […]
Analyses were performed in positive electrospray ionization mode. The chromatographic trace 288.054/176.0 was used for TFV quantification, while TFVDP was monitored on the trace 447.942/176.0. Mass transitions 288.054/135.9 and 447.942/270.0 were also used for confirmation of the measured compounds. […]

Where [5] appears, read: QC High (n = 4; TFV 210, TFVDP 420 ng/mL).
[6] abbreviates: QC Low (n = 4; TFV 0.75, TFVDP 1.5 ng/mL).

As to `C[C@H](Cn1cnc2c(N)ncnc21)OCP(=O)(O)OP(=O)(O)OP(=O)(O)O` [TFVDP, tenofovir diphosphate], the “Degradation in the absence of the phosphatase inhibitor” value in data set [1] (4 h at room temperature, blood spiked with TFVDP only, average at all tested concentrations) amounted to 85%. Further, in data set [1] (QC High (n = 4)), the Stability, Sample extracts 24 h 10 °C was 94.3%; the Stability, Blood 4 h room temp. is 96.9%; the Stability, Blood freeze-thaw 5 cycles came out at 95.4%. In data set [1] (setting [5]), this compound registered a Stability, Blood at −30 °C for 1 month of 106%. In data set [1] (QC Low (n = 4)), this compound yielded a Stability, Sample extracts 24 h 10 °C of 105%; a Stability, Blood 4 h room temp. of 105%; a Stability, Blood freeze-thaw 5 cycles of 111%. The compound further returned a Stability, Blood at −30 °C for 1 month in data set [1] (setting [6]) of 92.5%. For the same compound, in data set [2], the half-life is on record as 17 days. Moreover, in data set [3], the “Stability of added diphosphate metabolite in blood” value is on record as “unstable in blood”.

For the compound `C[C@H](Cn1cnc2c(N)ncnc21)OCP(=O)(O)O` [TFV, Tenofovir], in data set [4], the “Level in clinical sample, Blood” value is reported as “BLQ”. Also, in data set [1] (QC High (n = 4)), the Stability, Sample extracts 24 h 10 °C turned out to be 90.7%; the Stability, Blood 4 h room temp. was found to be 101%; the Stability, Blood freeze-thaw 5 cycles was found to be 111%. In data set [1] (setting [5]), this compound showed a Stability, Blood at −30 °C for 1 month of 112%. Also, in data set [1] (QC Low (n = 4)), the Stability, Sample extracts 24 h 10 °C was found to be 94.4%; the Stability, Blood 4 h room temp. was found to be 102%; the Stability, Blood freeze-thaw 5 cycles is 114%. In data set [1] (setting [6]), the Stability, Blood at −30 °C for 1 month is 104%.
